Experimental data taken from EP4782434A1, “N-SULFONYL CARBOXAMIDE COMPOUND, AND PREPARATION METHOD THEREFOR AND USE THEREOF” (Nutshell Therapeutics (Shanghai) Co., Ltd., priority 2023, dated 2025).
Converted amounts (≈) assume the structure as drawn.

Key:
[1] = system: DLD-1 BRCA2-/- cells; experiment: DLD-1 BRCA2-/- cell proliferation assay (CellTiter-Glo, 10 days incubation); assay type: cell-based; conditions: Homo sapiens, 240 h, DLD-1 BRCA2-/- cell line, total incubation period of 10 days, read-out: DLD1 BRCA2^-/- IC50
Excerpt: The anti-proliferative effect of the compounds on the human colorectal adenocarcinoma cell line DLD-1 BRCA2^-/- method.
• DLD-1 (purchased from ATCC, Cat. No.: CCL-221, Batch No.: 70033255); • RPMI1640 (purchased from Invitrogen, Cat. No.: 11875-085); • 0.25% Trypsin-EDTA (purchased from Invitrogen, Cat. No.: 25200-072); • Penicillin-Streptomycin solution (purchased from Hyclone, Cat. No.: SV30010); • FBS (purchased from BI, Cat. No.: 04-002-1A); • DMSO (purchased from Sigma, Cat. No.: D4540-1L); • 96-well plate (purchased from Corning, Cat. No.: CLS3903); • CellTiter-Glo reagent (purchased from Promega, Cat. No.: G7558).
The anti-proliferative effect of the compounds on a human colorectal adenocarcinoma cell line was evaluated using an ATP quantification method, wherein the measured activity correlates well with the number of viable cells. The genetically edited cell line DLD-1 BRCA2^-/- was cultured in RPMI 1640 medium (Invitrogen, 11875-085) supplemented with 10% (v/v) fetal bovine serum (BI, 04-002-1A). The cell line was cultured according to the standard instructions of the American Type Culture Collection (ATCC) and identified via short tandem repeat (STR) genotyping.
In the proliferation assay, cells were harvested and resuspended in cell culture medium. Cell density was determined using a cell counter. An appropriate volume of cell suspension was aspirated from the centrifuge tube to prepare a plating working solution (150 cells/100 µL for the DLD-1 BRCA2^-/- cell line). 100 µL of the cell suspension was seeded into each well of a 96-well plate (Corning, 3603) and incubated overnight in an incubator. The diluted test compound solutions were added to the wells. On the fourth and seventh days of compound incubation, the medium was replaced with fresh culture medium, and the compounds were re-administered, for a total incubation period of 10 days. Following incubation, the cell culture plates were removed and equilibrated to room temperature. 100 µL of CellTiter-Glo (Promega, G7558) was added to each well, and the plate was incubated at room temperature for 30 minutes. Data were read using a microplate reader (PerkinElmer, Enspire) in 96-well luminescence mode. Data analysis, curve fitting, and reporting were performed using the dose-response one-site 205 model of IDBS XL fit. Table 2: Proliferation inhibitory activity of compounds against DLD-1 BRCA2-/- cells

[2] = Thermodynamic solubility determination in FaSSIF; assay type: physicochemical; conditions: thermodynamic from solid, FaSSIF pH 6.5, 37°C
Description: • (1) The control compound, diclofenac sodium, was purchased from Sigma. • (2) FaSSIF, FeSSIF & FaSSGF (FFF02) powders were purchased from Biorelevant. • (3) 1.5 mL flat-bottom glass vials (purchased from local suppliers); PTFE/silicone septa (BioTech Solutions); PTFE-coated stir bars (V&P Scientific); MultiScreenHTS HV (0.45 µm) 96-well plates (Millipore, MSHVN4510 or MSHVN4550); Eppendorf Thermomixer Comfort; Vacuum Manifold ORVMN96 (Orochem).
0.420 g of NaOH, 3.438 g of NaH2PO4, and 6.186 g of NaCl were dissolved in approximately 900 mL of ultrapure water, and the pH of the solution was adjusted to 6.5 using 1N NaOH or 1N HCl. The solution was then diluted to 1000 mL with ultrapure water at room temperature.
2.240 g of FaSSIF, FeSSIF, and FaSSGF powder was added to approximately 500 mL of Buffer A. The mixture was stirred until the powder was completely dissolved. The solution was then diluted to 1000 mL with Buffer A at room temperature.
The solution was allowed to stand for 2 hours. The solution became slightly opalescent and was ready for use at that point. Note: it was to be used within 48 hours at room temperature or within 24 hours at 37°C.
(2) The test compounds and control compounds were weighed for solubility measurement (approximately 1.0 mg each in three separate 1.5 mL glass vials).
(3) For each compound, one vial served as a standard, and the other two vials were used for solubility measurement in duplicate.
(4) Each compound was placed sequentially into its appropriate 96-well plate. One plate served as the standard plate and the other as the sample plate.
(5) Based on the mass of the sample in each vial on the sample plate, an appropriate volume (approximately 1000 µL) of FaSSIF was added to each vial of the solubility sample plate using a pipette. […]
All calculations were performed using Microsoft Excel. Analysis and quantification of the sample filtrates were completed via LC-MS/MS by qualitative and quantitative comparison against the peaks of standards with known concentrations. […]

IC50 [1] [nM] | solubility at 24 h [2] [µg/mL] | solubility ([2]; 24 hours) [µg/mL] | Compound
16 | 511 (≈ 1030 µM) |  | [2H]C([2H])([2H])O[C@@H](C)c1ccc(CS(=O)(=O)NC(=O)c2ccc(C([2H])([2H])[2H])cc2-c2cc(Cl)ncc2OC)cc1 [cpd-17, (S)-2-(2-Chloro-5-methoxypyridin-4-yl)-N-((4-(1-(methoxy-d3)ethyl)benzyl)sulfonyl)-4-(methyl-d3)benzamide]
21 |  | 31 (≈ 64.9 µM) | COc1cnc(Cl)cc1-c1cc(C)ncc1C(=O)Nc1nnc(OC[C@H]2COCCO2)s1 [Ref. 1, reference compound]
24 | 669 (≈ 1310 µM) |  | [2H]C([2H])([2H])O[C@@H](C)c1ccc(CS(=O)(=O)NC(=O)c2ccc(C([2H])([2H])[2H])cc2-c2cc(C(F)F)ncc2OC)cc1 [cpd-16, (S)-2-(2-(Difluoromethyl)-5-methoxypyridin-4-yl)-N-((4-(1-(methoxy-d3)ethyl)benzyl)sulfonyl)-4-(methyl-d3)benzamide]
